Experimental data published in patent publication US4427660A, “Formyl-methionyl chemotatic peptide antibiotic conjugates useful in treating infections” (priority 1982, dated 1984).
Several values for one entry are separate records, joined by “and”; a condition that tells them apart may be missing. Equal entries are not always repeated. Where two headings read alike, the source gives them in different places. Positions of bridges follow the written chain, without caps; N, C: chain ends. Non-standard residues stand in square brackets, D forms with d. Residues, ends and D or L forms follow the SMILES beside them. *: point of attachment. Ileψ(thiazoline)Cys = CC[C@H](C)[C@H](N)C1=N[C@H](C(=O)*)CS1; dOrn = NCCC[C@@H](N)C(=O)O; Nle = CCCC[C@H](N)C(=O)O; For = O=C*

What was measured:
[1] = tested on: MN (monocyte) from human peripheral blood
Method: (§1) The neutrophil (PMN) experiments used 3μ nitrocellulose filters and the monocyte (MN) experiments used 5μ polycarbonate filters. PMNs and MNs were prepared from human peripheral blood by Ficoll-Hypaque and dextran sedimentation techniques. […] PMN experiments were incubated at 37° C. for 3 hours, MN experiments for 90 minutes. After this the filters were removed and stained and counted visually with a microscope.

[2] = tested on: Escherichia coli ATCC 25922; experiment: Kirby-Bauer disc assay, inhibitory zone size; assay type: cell-based; details: E. coli
Method: (§2) In these tables antimicrobial activity is expressed as inhibitory zone size as performed by the Kirby-Bauer assay.
(§3) The experiments in Tables 10-14 were performed using the following bacteria, media and experimental protocol:
(§4) The bacteria were Escherichia coli ATCC 25922 and Pseudomonas aeruginosa ATCC 27835.
(§5) The media was Trypticase soy agar (Baltimore Biological Laboratories, BBL) used as a general growth medium. Broth media was Brain heart infusion broth (BBL) for E. coli and medium 81 [trypticase soy broth without dextrose plus 1% potassium nitrate] for P. aeruginosa.
(§6) Antimicrobial susceptibility was tested on M9 medium [a glucose minimal salts medium (Miller, 1972)] solidified with 1.5% agar (Difco) for the base or 0.7% agar for overlay.
The following is the experimental protocol: Broth cultures of E. coli or P. aeruginosa were grown overnight in broth at 35° C. Cultures were diluted to visually match a 0.5 McFarland turbidity standard (Matsen and Barry, 1974); the numbers of organisms in this suspension ordinarily were .congruent.10^8 viable cells per ml. Ten microliter (ul) was inoculated into 10 ml. of 0.7% M9 agar that was melted and cooled to 46°-50° C. This was overlaid onto a 50 ml base of 1.5% M9 agar in 15 cm diameter petri dishes. The agar overlay was allowed to harden at room temperature for 30 min. Antimicrobial tests disks were placed on the surface of the agar, and the plates were incubated overnight at 35° C. Diameters of zones of inhibition of bacterial growth were measued with a vernier caliper and recorded to the nearest 0.1 mm.

[3] = tested on: PMN (neutrophil) from human peripheral blood
Method: as §1

[4] = tested on: Rabbit polymorphononuclear leukocytes (neutrophils); assay type: cell-based; details: for times more active than f-Met-Phe-OH: chemotactic activity and lysosomal enzyme secretion-inducing activity alike
Method: Rabbit polymorphononuclear leukocytes (neutrophils) were obtained 12 to 14 hours after the intraperitoneal injection of 0.1 percent glycogen, as described in Becker et al (Z. Immunitaetsforsch Exp. Klin. Immunol., Volume 143, Page 466 1972). They were washed in Hanks' balanched salt solution containing 0.01 M tris (hydroxymethyl) aminomethane, pH 7.2, 1 mg/ml of glucose, and 1 mg/ml of crystalline bovine serum albumin. The Hanks' balanced salt solution was the buffer used throughout the work.
The assay employed a modified Boyden chamber as described by Becker et al, supra. […] The loaded chambers were incubated for 30 minutes at 37° C. This time interval was chosen as giving, for the particular batch of filters used, the greatest difference between the number of cells moving into the filter with no peptide in the lower compartment (background) and the maximum number of cells moving into the filter when stimulated by peptide. At the end of the incubation the filters were removed and stained and the number of cells in five high-power (400 magnification) fields (5 HPF) were counted and averaged. The results reported are the means of duplicate chambers.
The migration enhancing activities of different peptides were compared essentially as described by Schiffmann et al (J. Immunol., Volume […], Page 1830, 1975) and Showell et al (J. Immunol., Volume 116, Page 99, 1976). In measuring the relative activity of the peptides, a peptide was diluted so that each concentration was one quarter that of the next higher concentration. The concentrations of peptides were chosen on the basis of preliminary experiments to cover the range giving minimum to maximal activity. The chemotactic activity plotted against the logarithm of the molar concentration of peptide yielded a sigmoidal-shaped dose-response curve. Different peptides tested at the same time with the same cells gave curves which were parallel to each other in their linear portions and had the same maximum. The activities of the different peptides are reported as the ED50, i.e., the concentration of chemotactic factor giving 50 percent of the maximum activity.
The results are reported as the means ED50 ±SE (standard error) as determined by at least three separate experiments. In this assay, the lower the value of the ED50, the greater is the chemotactic activity.

neutrophils = assay type: cell-based, rabbit
Method: The cytochalasin B was diluted from a stock solution containing 4 mg/ml in dimethyl sulphoxide. […] The mixtures were then incubated for five minutes at 37° C. (the release is completed in one minute of less under these conditions) and the tubes centrifuged at 2500 rpm (1400 g) for five minutes at 4° C.
The total concentration of enzyme was measured by lysing the cells with buffer containing 0.1 percent Triton X-100 (Beckmann Instruments, Inc., Fullerton, Calif.). […] The lactic dehydrogenase of each supernate was measured to insure that the peptides induced no release of this cytoplasmic marker.
The lysosomal enzyme-inducing activity for each peptide was obtained from the dose-response curve as its ED50, i.e., the molar concentration of peptide causing 50 percent of the maximal release of either lysozyme or β-glucuronidase. Again, the lower the value of the ED50, the greater is the lysosomal enzyme secretion-inducing activity.

[5] = tested on: 4 strains of Pseudomonas aeruginosa
Method: Antimicrobial activity was assayed by the MIC Technique using 4 strains of Pseudomonas aeruginosa.

[6] = tested on: Pseudomonas aeruginsa, strain Mangalore; details: EXPT 1-3 on separate lines
[7] = biological target: T1, surface receptor of rabbit polymorphonuclear leukocytes (Oryctolagus cuniculus, UniProt Q05394); experiment: Inhibition of F-Nle-leu (3H)PHE binding to rabbit PMN
T1 construct: endogenous in cells; host or cells: rabbit polymorphonuclear leukocytes (neutrophils)
T1 sequence (Q05394 1-352): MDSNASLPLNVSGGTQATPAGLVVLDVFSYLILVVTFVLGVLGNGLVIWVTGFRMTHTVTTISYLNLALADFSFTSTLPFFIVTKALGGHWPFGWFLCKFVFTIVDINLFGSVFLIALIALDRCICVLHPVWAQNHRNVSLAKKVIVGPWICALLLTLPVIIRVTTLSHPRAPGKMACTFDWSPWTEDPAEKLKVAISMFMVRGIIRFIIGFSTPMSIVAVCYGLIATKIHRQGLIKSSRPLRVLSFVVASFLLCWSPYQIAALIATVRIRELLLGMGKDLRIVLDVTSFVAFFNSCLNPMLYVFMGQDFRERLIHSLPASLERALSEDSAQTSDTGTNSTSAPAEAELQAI

[8] = tested on: human polymorphonuclear leukocytes; experiment: Chemotaxis for human polymorphonuclear leukocytes; assay type: cell-based; details: human PMN, FIG. 2 text and summary (Table 6)
leukocytes = details: relatively weak chemoattractants; cited from earlier work
[9] = tested on: Pseudomonas aeruginosa ATCC 27835; experiment: Kirby-Bauer disc assay, inhibitory zone size; assay type: cell-based; details: P. aeruginosa; disc FML alone; 6 mm = disc, no inhibition
Method: as §2, §3, §4, §5, §6
The following is the experimental protocol: Broth cultures of E. coli or P. aeruginosa were grown overnight in broth at 35° C. Cultures were diluted to visually match a 0.5 McFarland turbidity standard (Matsen and Barry, 1974); the numbers of organisms in this suspension ordinarily were .congruent.10^8 viable cells per ml. Ten microliter (ul) was inoculated into 10 ml. of 0.7% M9 agar that was melted and cooled to 46°-50° C. This was overlaid onto a 50 ml base of 1.5% M9 agar in 15 cm diameter petri dishes. […] Diameters of zones of inhibition of bacterial growth were measued with a vernier caliper and recorded to the nearest 0.1 mm.

peritoneal neutrophils = experiment: Test for true chemotaxis (Zigmond and Hirsch technique); assay type: cell-based, rabbit
Source text: Increased penetration of cells into or through the filter of a Boyden chamber system under the stimulus of a chemical agent is generally taken as indicating the chemotactic activity of the agent. Zigmond and Hirsch (J. Exp. Med., Volume 137, Page 387, 1973) have pointed out that the increased migration could result from a response directed by the chemical gradient, that is from chemotaxis, or from increased random locomotion or both. These authors have described a technique for determining if the movement of the cells into the filter of a Boyden chamber system under the influence of different gradients is greater than could be expected on the basis of increased rates of locomotion alone and to that extent is due to a true chemotactic response.
In testing f-Met-Leu-Phe-OH for true chemotaxis, 5×10^6 /ml of washed peritoneal neutrophils obtained twelve hours after the administration of 0.1 percent glycogen were suspended in varying concentrations of the peptide and placed in the upper compartment of a modified Boyden chamber. […] Using the micrometer of the fine adjustment of the microscope, the distance was measured from the top of the filter to the farthest plane of focus still containing two cells. This distance was determined across five fields and averaged. […] The test results were analyzed as described by Zigmond and Hirsch. […]

[10] = [F-Met-Leu-Phe] 10^-6, Sulfadiazine 5 μg
[11] = [F-Met-Leu-Phe] 10^-6, Sulfadiazine 50 μg
[12] = [F-Met-Leu-Phe] 10^-6, Sulfadiazine 100 μg
[13] = [F-Met-Leu-Phe] 10^-7, Sulfadiazine 5 μg
[14] = [F-Met-Leu-Phe] 10^-7, Sulfadiazine 50 μg
[15] = [F-Met-Leu-Phe] 10^-7, Sulfadiazine 100 μg
[16] = [F-Met-Leu-Phe] 10^-7, Sulfadiazine 250 μg
[17] = [F-Met-Leu] 10^-3, Sulfadiazine 5 μg
[18] = [F-Met-Leu] 10^-3, Sulfadiazine 25 μg
[19] = [F-Met-Leu] 10^-3, Sulfadiazine 50 μg
[20] = [F-Met-Leu] 10^-3, Sulfadiazine 100 μg
[21] = [F-Met-Leu] 10^-3, Sulfadiazine 250 μg
[22] = [F-Met-Leu] 10^-4, Sulfadiazine 5 μg
[23] = [F-Met-Leu] 10^-4, Sulfadiazine 25 μg
[24] = [F-Met-Leu] 10^-4, Sulfadiazine 50 μg
[25] = [F-Met-Leu] 10^-4, Sulfadiazine 100 μg
[26] = [F-Met-Leu] 10^-4, Sulfadiazine 250 μg
[27] = concentration giving 50 percent of maximum activity, mean of at least three experiments, 30 minutes at 37° C.
[28] = molar concentration causing 50 percent of maximal release, 10 μg/ml cytochalasin B, five minutes at 37° C.

Nc1ccc(S(=O)(=O)Nc2ncccn2)cc1 [Sulfadiazine, sulfadiazine]
% Inhibition MN [1, 10]: 22.5% | % Inhibition MN [1, 11]: 21.0% | % Inhibition MN [1, 12]: 82.0% | % Inhibition MN [1, 13]: 14.6% | % Inhibition MN [1, 14]: 13.7% | % Inhibition MN [1, 15]: 41.7% | % Inhibition MN [1, 16]: 96.6% | % Inhibition MN [1, 17]: 2.5% | % Inhibition MN [1, 18]: 13.0% | % Inhibition MN [1, 19]: 36.7% | % Inhibition MN [1, 20]: 43.3% | % Inhibition MN [1, 21]: 98.0% | % Inhibition MN [1, 22]: 20.0% | % Inhibition MN [1, 23]: 17.5% | % Inhibition MN [1, 24]: 17.0% | % Inhibition MN [1, 25]: 60.0% | % Inhibition MN [1, 26]: 97.5% | Zone Diameter ([2]; disc 10 μg, alone): 28.0 mm | Zone Diameter ([2]; disc 25 μg, alone): 32.0 mm | % Inhibition PMN [3, 10]: 10.0% | % Inhibition PMN ([3]; [F-Met-Leu-Phe] 10^-6, Sulfadiazine 25 μg): 8.0% | % Inhibition PMN [3, 11]: 39.5% | % Inhibition PMN [3, 12]: 49.0% | % Inhibition PMN [3, 13]: 16.8% | % Inhibition PMN ([3]; [F-Met-Leu-Phe] 10^-7, Sulfadiazine 25 μg): 18.0% | % Inhibition PMN [3, 14]: 65.8% | % Inhibition PMN [3, 15]: 70.8% | % Inhibition PMN [3, 16]: 88.0% | % Inhibition PMN [3, 17]: 19.0% | % Inhibition PMN [3, 18]: 38.0% | % Inhibition PMN [3, 19]: 48.7% | % Inhibition PMN [3, 20]: 73.3% | % Inhibition PMN [3, 21]: 83.9% | % Inhibition PMN [3, 22]: 1.0% | % Inhibition PMN [3, 23]: 14.0% | % Inhibition PMN [3, 24]: 37.5% | % Inhibition PMN [3, 25]: 53.0% | % Inhibition PMN [3, 26]: 41.0%

CCCC[C@H](NC=O)C(=O)N[C@@H](CC(C)C)C(=O)N[C@@H](Cc1ccccc1)C(=O)O [f--Nle--Leu--Phe--OH] (For-[Nle]-Leu-Phe-OH)
Chemotactic Activity ED50 ± SE [4]: 6.6 ± 1.2 × 10^-10 M | ED50 ± SE B-Glucoronidase (neutrophils): 1.9 ± 0.2 × 10^-9 M | ED50 ± SE Lysosyme (neutrophils): 1.5 ± 0.2 × 10^-9 M

formyl-Met-Leu-phe-silver sulfadiazine [FMLP-AgSDZ]
concentration at which all strains were inhibited (MIC Technique) [5]: 80 μm/ml | MIC at 24h [6]: 40 μg/m and 80 μg/m | ID50, molar concentration which displaced 50% of a labeled attractant from the cell receptor ([7]; F-Nle-leu (3H)PHE, rabbit PMN): 2 nM | ED50, M concentration giving 50% max activity [8]: 96 nM | ED50, M concentration giving 50% max activity ([8]; listed as FMLP--AgSDZ): 78 nM

tyrocidin
chemoattractant concentration (leukocytes): 10^-5 to 10^-6 M

CSCC[C@H](NC=O)C(=O)N[C@@H](CC(C)C)C(=O)O [f--Met--Leu--OH] (For-Met-Leu-OH)
Chemotactic Activity ED50 ± SE [4, 27]: 4.0 ± 0.45 × 10^-7 M | ED50 ± SE Lysosyme (neutrophils; [28]): 1.7 ± 0.17 × 10^-6 M | Zone Diameter ([2]; disc FML alone, 6 mm = disc, no inhibition): 6.0 mm | Zone Diameter [9]: 6.0 mm

CSCC[C@H](NC=O)C(=O)N[C@@H](CC(C)C)C(=O)N[C@@H](Cc1ccccc1)C(=O)O [FMLP, formyl-methionyl-leucyl-phenylalanine]
times more active than f-Met-Phe-OH [4]: 5,000 times | Chemotactic Activity ED50 ± SE [4, 27]: 7.0 ± 1.7 × 10^-11 M | ED50 ± SE B-Glucoronidase (neutrophils; [28]): 2.6 ± 0.32 × 10^-10 M | ED50 ± SE Lysosyme (neutrophils; [28]): 2.4 ± 0.31 × 10^-10 M | distance cells moved farther than predicted (peritoneal neutrophils; positive gradient (peptide below greater than above the filter)): greater than 10 μm | true chemotaxis (experimental vs predicted values) (peritoneal neutrophils; sixty minutes at 37° C., 3.0 μm pore size filter): truly chemotactic | IC50 [7]: 0.5 nM

CSCC[C@H](NC=O)C(=O)N[C@@H](Cc1ccccc1)C(=O)N[C@@H](CC(C)C)C(=O)O [f-Met-Phe-Leu-OH] (For-Met-Phe-Leu-OH)
times less active than f-Met-Leu-Phe-OH ([4]; chemotactic and lysosomal enzyme secretion-inducing activities): 500 times

CC[C@H](C)[C@H](N)C1=N[C@H](C(=O)N[C@@H](CC(C)C)C(=O)N[C@H](CCC(=O)O)C(=O)N[C@H](C(=O)N[C@H]2CCCCNC(=O)[C@H](CC(N)=O)NC(=O)[C@@H](CC(=O)O)NC(=O)[C@H](Cc3cnc[nH]3)NC(=O)[C@@H](Cc3ccccc3)NC(=O)[C@H]([C@@H](C)CC)NC(=O)[C@@H](CCCN)NC2=O)[C@@H](C)CC)CS1 [bacitracin] ({Ileψ(thiazoline)Cys}-L[dE]IK[dOrn]I[dF]H[dD]N; lactam 4-C)
chemoattractant concentration (leukocytes): 10^-5 to 10^-6 M

CSCC[C@H](NC=O)C(=O)N[C@@H](CCSC)C(=O)N[C@@H](Cc1ccccc1)C(=O)O [f--Met--Met--Phe--OH] (For-Met-Met-Phe-OH)
Chemotactic Activity ED50 ± SE [4, 27]: 2.1 ± 0.49 × 10^-10 M | ED50 ± SE B-Glucoronidase (neutrophils): 1.8 ± 0.24 × 10^-9 M | ED50 ± SE Lysosyme (neutrophils): 1.9 ± 0.4 × 10^-9 M

gramicidin
chemoattractant concentration (leukocytes): 10^-5 to 10^-6 M

CSCC[C@H](NC=O)C(=O)N[C@@H](CC(C)C)C(=O)N[C@@H](Cc1ccccc1)C(=O)N[C@@H](CCCCN)C(=O)O [f--Met--Leu--Phe--Lys--OH] (For-MLFK-OH)
Chemotactic Activity ED50 ± SE [4]: 7.0 ± 1.0 × 10^-10 M | times more active than f-Met-Phe-OH [4]: 500 times | ED50 ± SE B-Glucoronidase (neutrophils): 1.9 ± 0.3 × 10^-9 M | ED50 ± SE Lysosyme (neutrophils): 1.7 ± 0.5 × 10^-9 M

CSCC[C@H](NC=O)C(=O)N[C@@H](Cc1ccccc1)C(=O)O [f--Met--Phe--OH] (For-Met-Phe-OH)
Chemotactic Activity ED50 ± SE [4, 27]: 4.1 ± 0.95 × 10^-7 M | ED50 ± SE B-Glucoronidase (neutrophils): 2.0 ± 0.42 × 10^-6 M | ED50 ± SE Lysosyme (neutrophils; [28]): 1.5 ± 0.39 × 10^-6 M

CSCC[C@H](NC(=O)[C@H](CCSC)NC(=O)[C@H](CCSC)NC(=O)[C@H](CCSC)NC=O)C(=O)O [f--Met--Met--Met--Met--OH] (For-MMMM-OH)
Chemotactic Activity ED50 ± SE [4]: 3.0 ± 0.13 × 10^-10 M | ED50 ± SE B-Glucoronidase (neutrophils): 3.0 ± 0.73 × 10^-9 M | ED50 ± SE Lysosyme (neutrophils): 2.4 ± 0.34 × 10^-9 M
